Like-named read-outs stand apart in the source and are kept apart here.
Experiments:
JAK2 = molecular target: T1, JAK2 (Homo sapiens, UniProt O60674); test: Recombinant Human JAK2 Kinase Assay (TRF); format: biochemical; settings: read-out: JAK2 Potency
T1 construct: host or cells: baculovirus expression system
Description: Compounds were tested for their ability to inhibit the kinase activity of baculovirus-expressed JAK2 using the TRF detection system. […] The plates were coated first with 100 μL/well of 10 μg/mL Neutravidin (Pierce #31000, Rockford, Ill.) in TBS at 37° C. for 2 hours, followed by 100 μL/well of 1 μg/mL 15-mer peptide substrate (biotinyl-amino-hexanoyl-[…]-amide, Infinity Biotech Research and Resource, Aston, Pa.) at 37° C. for another hour. The JAK2 assay mixture (total volume=100 μL/well) consisting of 20 mM HEPES (pH 7.2), 0.2 μM ATP, 1 mM MnCl2, 0.1% BSA, and test compound (diluted in DMSO; 2.5% DMSO final in assay) was then added to the assay plate. Enzyme (15 ng/ml JAK2) was added and the reaction was allowed to proceed at room temperature for 20 minutes. Detection of the phosphorylated product was performed by adding 100 μL/well of Eu—N1 labeled PY100 antibody (PerkinElmer Life Sciences #AD0041, Boston, Mass.).

ALK = molecular target: T2, ALK (Homo sapiens, UniProt Q9UM73); test: ALK Kinase Assay (ELISA/TRF, PLC-γ substrate); format: biochemical; settings: read-out: ALK Potency
T2 construct: host or cells: baculovirus expression system
Description: Briefly, each 96-well plate was coated with […] of 10 μg/mL substrate (phospholipase C-γ) in Tris-buffered saline (TBS). […] The reaction was initiated by adding enzyme (30 ng/ml ALK) and was allowed to proceed at 37° C. for 15 minutes. Detection of the phosphorylated product was performed by adding 100 μl/well of Eu—N1 labeled PT66 antibody (Perkin Elmer # AD0041).
Data analysis was performed using ActivityBase (IDBS, Guilford, UK). IC50 values were calculated by plotting percent inhibition versus log10 of the concentration of compound and fitting to the nonlinear regression sigmoidal dose-response (variable slope) equation in XLFit (IDBS, Guilford, UK).

[1] = JAK2 kinase inhibition, 0.2 μM ATP
[2] = ALK kinase inhibition, 1 μM ATP

T1 sequence (O60674 whole entry): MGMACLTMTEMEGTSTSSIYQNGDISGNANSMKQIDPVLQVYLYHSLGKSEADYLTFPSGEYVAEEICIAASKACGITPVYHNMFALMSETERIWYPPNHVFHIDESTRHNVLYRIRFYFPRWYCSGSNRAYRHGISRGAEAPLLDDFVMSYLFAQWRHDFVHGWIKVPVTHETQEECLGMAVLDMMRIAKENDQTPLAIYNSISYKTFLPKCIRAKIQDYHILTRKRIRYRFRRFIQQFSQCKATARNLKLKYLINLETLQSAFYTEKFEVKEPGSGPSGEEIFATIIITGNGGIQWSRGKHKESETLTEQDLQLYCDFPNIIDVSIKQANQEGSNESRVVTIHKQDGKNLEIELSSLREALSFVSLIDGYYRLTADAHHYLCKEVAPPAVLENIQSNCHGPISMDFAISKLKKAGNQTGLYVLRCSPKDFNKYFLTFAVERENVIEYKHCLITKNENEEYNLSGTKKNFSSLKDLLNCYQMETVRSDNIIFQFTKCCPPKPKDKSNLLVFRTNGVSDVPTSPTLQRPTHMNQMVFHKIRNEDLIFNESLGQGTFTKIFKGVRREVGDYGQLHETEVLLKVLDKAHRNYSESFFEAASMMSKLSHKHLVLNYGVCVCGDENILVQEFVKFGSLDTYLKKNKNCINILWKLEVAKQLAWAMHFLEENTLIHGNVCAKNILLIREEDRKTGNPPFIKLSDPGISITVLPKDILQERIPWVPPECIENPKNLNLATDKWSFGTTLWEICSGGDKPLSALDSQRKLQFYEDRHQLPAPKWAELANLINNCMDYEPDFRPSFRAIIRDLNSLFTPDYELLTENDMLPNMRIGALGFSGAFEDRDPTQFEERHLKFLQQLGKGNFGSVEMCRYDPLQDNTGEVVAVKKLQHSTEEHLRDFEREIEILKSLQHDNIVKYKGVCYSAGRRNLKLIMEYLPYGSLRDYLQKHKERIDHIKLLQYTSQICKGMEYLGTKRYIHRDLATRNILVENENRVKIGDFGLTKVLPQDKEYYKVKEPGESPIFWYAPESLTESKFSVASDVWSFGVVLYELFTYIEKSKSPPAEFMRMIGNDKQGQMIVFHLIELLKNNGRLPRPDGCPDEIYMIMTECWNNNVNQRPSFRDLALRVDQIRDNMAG
T2 sequence (Q9UM73 19-1620): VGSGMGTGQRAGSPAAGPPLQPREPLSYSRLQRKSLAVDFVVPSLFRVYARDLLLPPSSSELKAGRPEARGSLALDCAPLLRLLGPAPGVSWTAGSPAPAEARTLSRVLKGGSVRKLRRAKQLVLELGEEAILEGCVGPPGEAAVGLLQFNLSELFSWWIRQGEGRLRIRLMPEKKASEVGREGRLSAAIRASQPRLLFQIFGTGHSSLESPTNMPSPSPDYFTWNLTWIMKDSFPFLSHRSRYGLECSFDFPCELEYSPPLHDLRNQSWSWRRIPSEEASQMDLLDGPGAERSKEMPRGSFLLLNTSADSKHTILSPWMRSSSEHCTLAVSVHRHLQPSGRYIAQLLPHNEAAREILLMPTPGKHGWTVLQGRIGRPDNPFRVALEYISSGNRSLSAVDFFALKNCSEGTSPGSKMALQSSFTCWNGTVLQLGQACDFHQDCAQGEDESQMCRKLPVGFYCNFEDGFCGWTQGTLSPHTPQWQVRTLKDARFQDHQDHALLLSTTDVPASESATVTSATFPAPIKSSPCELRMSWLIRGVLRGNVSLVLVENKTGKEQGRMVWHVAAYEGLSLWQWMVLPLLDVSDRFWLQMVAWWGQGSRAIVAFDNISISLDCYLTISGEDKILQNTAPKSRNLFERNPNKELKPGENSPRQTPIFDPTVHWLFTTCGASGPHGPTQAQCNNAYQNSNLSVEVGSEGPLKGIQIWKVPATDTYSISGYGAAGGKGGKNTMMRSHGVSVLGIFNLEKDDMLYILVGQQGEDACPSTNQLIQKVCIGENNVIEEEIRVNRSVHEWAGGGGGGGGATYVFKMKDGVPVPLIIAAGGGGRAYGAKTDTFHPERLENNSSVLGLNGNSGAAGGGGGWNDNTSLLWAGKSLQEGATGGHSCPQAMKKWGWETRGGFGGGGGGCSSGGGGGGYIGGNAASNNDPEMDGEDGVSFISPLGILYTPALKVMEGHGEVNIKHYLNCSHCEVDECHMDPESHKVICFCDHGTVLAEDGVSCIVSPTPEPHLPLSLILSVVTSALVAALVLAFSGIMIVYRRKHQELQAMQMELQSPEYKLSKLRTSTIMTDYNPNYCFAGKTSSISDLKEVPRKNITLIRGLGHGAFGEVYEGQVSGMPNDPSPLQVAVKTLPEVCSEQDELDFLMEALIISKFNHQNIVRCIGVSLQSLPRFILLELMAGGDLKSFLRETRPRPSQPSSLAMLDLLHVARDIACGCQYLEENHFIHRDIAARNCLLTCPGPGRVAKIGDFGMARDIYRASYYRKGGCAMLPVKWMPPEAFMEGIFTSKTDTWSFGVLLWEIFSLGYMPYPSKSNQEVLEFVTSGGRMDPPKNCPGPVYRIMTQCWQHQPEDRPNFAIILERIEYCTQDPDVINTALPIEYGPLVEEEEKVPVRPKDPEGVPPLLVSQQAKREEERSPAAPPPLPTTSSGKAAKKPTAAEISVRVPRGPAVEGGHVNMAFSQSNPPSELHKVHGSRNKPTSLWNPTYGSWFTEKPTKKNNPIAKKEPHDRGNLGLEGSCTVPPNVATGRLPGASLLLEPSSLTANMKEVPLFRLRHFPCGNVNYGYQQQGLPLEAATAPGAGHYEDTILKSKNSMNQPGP

Compound: CC(C)(C)NS(=O)(=O)c1cccc(-c2ccc3cnc(Nc4ccc(C5CCC(N6CCCC6)CC5)cc4)nn23)c1 (stereo not drawn) [Example 566, N-tert-Butyl-3-{2-[4-(4-pyrrolidin-1-yl-cyclohexyl)-phenylamino]-pyrrolo[2,1-f][1,2,4]triazin-7-yl}-benzenesulfonamide]
- IC50 (JAK2; [1]): < 100 nM
- IC50 (ALK; [2]): 100 to 1000 nM

Compound: CN1CCN(c2cccc(Nc3ncc4ccc(-c5cccc(CCC#N)c5)n4n3)c2)CC1 [Example 1153, 3-(3-{2-[3-(4-Methyl-piperazin-1-yl)-phenylamino]-pyrrolo[2,1-f][1,2,4]triazin-7-yl}-phenyl)-propionitrile]
- IC50 (JAK2; [1]): < 100 nM
- IC50 (ALK; [2]): < 100 nM

Compound: CN(c1ccccc1-c1ccc2cnc(Nc3cnn(C4CCNCC4)c3)nn12)S(C)(=O)=O [Example 717, N-Methyl-N-{2-[2-(1-piperidin-4-yl-1H-pyrazol-4-ylamino)-pyrrolo[2,1-f][1,2,4]triazin-7-yl]-phenyl}-methanesulfonamide]
- IC50 (JAK2; [1]): < 100 nM
- IC50 (ALK; [2]): 100 to 1000 nM

Compound: COc1cc(CN2CCN(C[C@H](C)O)CC2)ccc1Nc1ncc2ccc(-c3ccccc3OC)n2n1 [Example 1226, (S)-1-(4-{3-Methoxy-4-[7-(2-methoxy-phenyl)-pyrrolo[2,1-f][1,2,4]triazin-2-ylamino]-benzyl}-piperazin-1-yl)-propan-2-ol]
- IC50 (JAK2; [1]): 100 to 1000 nM
- IC50 (ALK; [2]): < 100 nM

Compound: CN1CCN(C2CCCN(c3ccc(Nc4ncc5ccc(-c6cccc(Cl)c6)n5n4)cc3)C2)CC1 (stereo not drawn) [Example 350, [7-(3-Chloro-phenyl)-pyrrolo[2,1-f][1,2,4]triazin-2-yl]-{4-[3-(4-methyl-piperazin-1-yl)-piperidin-1-yl]-phenyl}-amine]
- IC50 (JAK2; JAK2 Kinase Inhibition): < 100 nM
- IC50 (ALK; ALK Kinase Inhibition): < 100 nM

Compound: COc1ccccc1-c1ccc2cnc(Nc3ccc(OCCN4CCOCC4)cc3)nn12 [Example 1101, [7-(2-Methoxy-phenyl)-pyrrolo[2,1-f][1,2,4]triazin-2-yl]-[4-(2-morpholin-4-yl-ethoxy)-phenyl]-amine]
- IC50 (JAK2; [1]): < 100 nM
- IC50 (ALK; [2]): < 100 nM

Compound: CC(C)S(=O)(=O)c1cccc(-c2ccc3cnc(Nc4ccc(Cl)c(OC[C@@H]5CCCN5)c4)nn23)c1 [Example 1015, [4-Chloro-3-((S)-1-pyrrolidin-2-ylmethoxy)-phenyl]-{7-[3-(propane-2-sulfonyl)-phenyl]-pyrrolo[2,1-f][1,2,4]triazin-2-yl}-amine]
- IC50 (JAK2; [1]): < 100 nM
- IC50 (ALK; [2]): 100 to 1000 nM

Compound: CN1CCN(c2ccc(Nc3ncc4ccc(-c5cccc(N6CCN(C(=O)OC(C)(C)C)CC6)c5)n4n3)cc2)CC1 [Example 1166, 4-(3-{2-[4-(4-Methyl-piperazin-1-yl)-phenylamino]-pyrrolo[2,1-f][1,2,4]triazin-7-yl}-phenyl)-piperazine-1-carboxylic acid tert-butyl ester]
- IC50 (JAK2; [1]): < 100 nM
- IC50 (ALK; [2]): 1000 to 10000 nM

Compound: COc1ccccc1-c1ccc2cnc(Nc3ccc(N4CCC(N5CCN(C)CC5)CC4)cc3)nn12 [Example 310, [7-(2-Methoxy-phenyl)-pyrrolo[2,1-f][1,2,4]triazin-2-yl]-{4-[4-(4-methyl-piperazin-1-yl)-piperidin-1-yl]-phenyl}-amine]
- IC50 (JAK2; JAK2 Kinase Inhibition): < 100 nM
- IC50 (ALK; ALK Kinase Inhibition): < 100 nM

Compound: CN(c1ccccc1-c1ccc2cnc(Nc3cccc(N4CCOCC4)c3)nn12)S(C)(=O)=O [Example 410, N-Methyl-N-{2-[2-(3-morpholin-4-yl-phenylamino)-pyrrolo[2,1-f][1,2,4]triazin-7-yl]-phenyl}-methanesulfonamide]
- IC50 (JAK2; JAK2 Kinase Inhibition): < 100 nM
- IC50 (ALK; ALK Kinase Inhibition): 100 to 1000 nM

Compound: COc1ccc(Cl)cc1-c1ccc2cnc(Nc3ccc(N4CCN(CC(C)(C)O)CC4)cc3)nn12 [Example 222, 1-(4-{4-[7-(5-Chloro-2-methoxy-phenyl)-pyrrolo[2,1-f][1,2,4]triazin-2-ylamino]-phenyl}-piperazin-1-yl)-2-methyl-propan-2-ol]
- IC50 (JAK2; JAK2 Kinase Inhibition): < 100 nM
- IC50 (ALK; ALK Kinase Inhibition): < 100 nM

Compound: Clc1cccc(-c2ccc3cnc(Nc4ccc5[nH]ccc5c4)nn23)c1 [Example 176, [7-(3-Chloro-phenyl)-pyrrolo[2,1-f][1,2,4]triazin-2-yl]-(1H-indol-5-yl)-amine]
- IC50 (JAK2; JAK2 Kinase Inhibition): < 100 nM
- IC50 (ALK; ALK Kinase Inhibition): > 10000 nM

Compound: COc1cc(-c2ccc3cnc(Nc4ccc(C5CCN(CC(N)=O)CC5)cc4)nn23)c(OC)nn1 [Example 580, 2-(4-{4-[7-(3,6-Dimethoxy-pyridazin-4-yl)-pyrrolo[2,1-f][1,2,4]triazin-2-ylamino]-phenyl}-piperidin-1-yl)-acetamide]
- IC50 (JAK2; [1]): < 100 nM
- IC50 (ALK; [2]): 100 to 1000 nM

Compound: (7-Pyridin-3-yl-pyrrolo[2,1-f][1,2,4]triazin-2-yl)-[4-(2-pyrrolidin-1-yl-ethoxy)-phenyl]-amine [Example 126]
- IC50 (JAK2; JAK2 Kinase Inhibition): < 100 nM
- IC50 (ALK; ALK Kinase Inhibition): 100 to 1000 nM

Compound: CC(C)(C)NS(=O)(=O)c1cccc(-c2ccc3cnc(Nc4ccc5c(c4)NC(=O)C5(C)C)nn23)c1 [Example 655, N-tert-Butyl-3-[2-(3,3-dimethyl-2-oxo-2,3-dihydro-1H-indol-6-ylamino)-pyrrolo[2,1-f][1,2,4]triazin-7-yl]-benzenesulfonamide]
- IC50 (JAK2; [1]): < 100 nM
- IC50 (ALK; [2]): 100 to 1000 nM

Compound: Clc1ncccc1-c1ccc2cnc(Nc3ccc(N4CCOCC4)cc3)nn12 [Example 1034, [7-(2-Chloro-pyridin-3-yl)-pyrrolo[2,1-f][1,2,4]triazin-2-yl]-(4-morpholin-4-yl-phenyl)-amine]
- IC50 (JAK2; [1]): < 100 nM
- IC50 (ALK; [2]): 1000 to 10000 nM

Compound: COc1cc2c(cc1Nc1ncc3ccc(-c4ccccc4OC)n3n1)CN(C(C)C)C2 [Example 877, (2-Isopropyl-6-methoxy-2,3-dihydro-1H-isoindol-5-yl)-[7-(2-methoxy-phenyl)-pyrrolo[2,1-f][1,2,4]triazin-2-yl]-amine]
- IC50 (JAK2; [1]): < 100 nM
- IC50 (ALK; [2]): < 100 nM

Compound: CC(=O)N1CCc2ccc(Nc3ncc4ccc(-c5cccc(S(=O)(=O)NC(C)(C)C)c5)n4n3)cc21 [Example 1372, 3-[2-(1-Acetyl-2,3-dihydro-1H-indol-6-ylamino)-pyrrolo[2,1-f][1,2,4]triazin-7-yl]-N-tert-butyl-benzenesulfonamide]
- IC50 (JAK2; JAK2 Kinase Inhibition): < 100 nM
- IC50 (ALK; ALK Kinase Inhibition): > 10000 nM

Compound: COc1ccccc1-c1ccc2cnc(Nc3ccc4c(c3)CCN(C)C4)nn12 [Example 915, [7-(2-Methoxy-phenyl)-pyrrolo[2,1-f][1,2,4]triazin-2-yl]-(2-methyl-1,2,3,4-tetrahydro-isoquinolin-6-yl)-amine]
- IC50 (JAK2; [1]): < 100 nM
- IC50 (ALK; [2]): < 100 nM

Compound: COc1cc(N2CCC(N3CCOCC3)CC2)ccc1Nc1ncc2ccc(-c3ccc(Cl)cc3OC)n2n1 [Example 486, [7-(4-Chloro-2-methoxy-phenyl)-pyrrolo[2,1-f][1,2,4]triazin-2-yl]-[2-methoxy-4-(4-morpholin-4-yl-piperidin-1-yl)-phenyl]-amine]
- IC50 (JAK2; [1]): < 100 nM
- IC50 (ALK; [2]): < 100 nM

Compound: CN1CCN(c2ccc(Nc3ncc4ccc(-c5ccc(S(C)(=O)=O)cc5)n4n3)cc2)CC1 [Example 59, [7-(4-Methanesulfonyl-phenyl)-pyrrolo[2,1-f][1,2,4]triazin-2-yl]-[4-(4-methyl-piperazin-1-yl)-phenyl]-amine]
- IC50 (JAK2; JAK2 Kinase Inhibition): < 100 nM
- IC50 (ALK; ALK Kinase Inhibition): 100 to 1000 nM

Compound: CC(=O)N1CCc2ccc(Nc3ncc4ccc(-c5cccc(NC(=O)C(C)(C)C)c5)n4n3)cc21 [Example 882, N-{3-[2-(1-Acetyl-2,3-dihydro-1H-indol-6-ylamino)-pyrrolo[2,1-f][1,2,4]triazin-7-yl]-phenyl}-2,2-dimethyl-propionamide]
- IC50 (JAK2; [1]): < 100 nM
- IC50 (ALK; [2]): > 10000 nM

Compound: CN(c1ccccc1-c1ccc2cnc(Nc3cncc(C(N)=O)c3)nn12)S(C)(=O)=O [Example 666, 5-{7-[2-(Methanesulfonyl-methyl-amino)-phenyl]-pyrrolo[2,1-f][1,2,4]triazin-2-ylamino}-nicotinamide]
- IC50 (JAK2; [1]): < 100 nM
- IC50 (ALK; [2]): 1000 to 10000 nM

Compound: COc1ccc(-c2ccc3cnc(Nc4ccc(N5CCOCC5)nc4)nn23)cn1 [Example 1106]
- IC50 (JAK2; [1]): < 100 nM
- IC50 (ALK; [2]): 1000 to 10000 nM

Compound: O=S1(=O)CCN(Cc2ccc(-c3ccc4cnc(Nc5ccc(N6CCOCC6)cc5)nn34)cc2)CC1 [Example 1032, {7-[4-(1,1-Dioxo-1$1(6)-thiomorpholin-4-ylmethyl)-phenyl]-pyrrolo[2,1-f][1,2,4]triazin-2-yl}-(4-morpholin-4-yl-phenyl)-amine]
- IC50 (JAK2; [1]): < 100 nM
- IC50 (ALK; [2]): 100 to 1000 nM

Compound: Cn1cnc(-c2ccc3cnc(Nc4ccc(N5CCOCC5)cc4)nn23)c1 [Example 1045, [7-(1-Methyl-1H-imidazol-4-yl)-pyrrolo[2,1-f][1,2,4]triazin-2-yl]-(4-morpholin-4-yl-phenyl)-amine]
- IC50 (JAK2; [1]): < 100 nM
- IC50 (ALK; [2]): 1000 to 10000 nM

Compound: COc1cc(N2CCC(N3CCOCC3)CC2)ccc1Nc1ncc2ccc(-c3cccc(CCC#N)c3)n2n1 [Example 1159, 3-(3-{2-[2-Methoxy-4-(4-morpholin-4-yl-piperidin-1-yl)-phenylamino]-pyrrolo[2,1-f][1,2,4]triazin-7-yl}-phenyl)-propionitrile]
- IC50 (JAK2; [1]): < 100 nM
- IC50 (ALK; [2]): < 100 nM

Reference: US8471005B2 (Cephalon, Inc., priority 2008, dated 2013)
